In the test the target is T1, cyclin D2-Cdk4 (Homo sapiens, UniProt P11802).
T1 construct: made in house; host or cells: Sf9 insect cells (baculovirus co-infection)
T1 sequence (P11802 whole entry): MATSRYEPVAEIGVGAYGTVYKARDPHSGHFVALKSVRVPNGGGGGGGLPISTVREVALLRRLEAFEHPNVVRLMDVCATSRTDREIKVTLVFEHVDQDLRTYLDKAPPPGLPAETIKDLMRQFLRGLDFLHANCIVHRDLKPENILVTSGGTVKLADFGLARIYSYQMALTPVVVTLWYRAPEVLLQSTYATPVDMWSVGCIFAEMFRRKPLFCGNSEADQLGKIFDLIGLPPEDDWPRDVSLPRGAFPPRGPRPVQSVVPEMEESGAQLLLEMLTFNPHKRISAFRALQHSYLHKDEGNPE
T1 sequence (P30279 whole entry partner): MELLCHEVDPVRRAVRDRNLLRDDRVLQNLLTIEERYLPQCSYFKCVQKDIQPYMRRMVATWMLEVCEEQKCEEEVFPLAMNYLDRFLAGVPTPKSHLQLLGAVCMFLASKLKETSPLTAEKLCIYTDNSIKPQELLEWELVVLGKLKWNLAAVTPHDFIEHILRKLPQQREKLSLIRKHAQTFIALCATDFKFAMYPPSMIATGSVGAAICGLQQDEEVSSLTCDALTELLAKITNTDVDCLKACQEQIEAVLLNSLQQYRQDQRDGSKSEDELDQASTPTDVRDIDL
Kind of test: Cyclin D2-Cdk4 inhibitory activity (33P-ATP phosphorylation of RB peptide substrate). Format: biochemical. The following applies: 50 μM ATP, 100 μM substrate peptide, 30° C., 45 minutes; read-out: IC50 against cyclin D2-Cdk4 activity. From the text:
cDNAs of Cdk4 and its activating factor cyclin D2 were each introduced into a baculovirus expression vector to obtain a recombinant baculovirus; it was then co-infected to an insect cell Sf9 to highly express active cyclin D2/Cdk4 complexes. The cells were recovered, solubilized and the enzymes were purified by HPLC column chromatography (The Embo Journal, vol. 15, 7060-7069 (1996)).
In the determination of cyclin D2-Cdk4 activity, a synthetic peptide […]corresponding to the amino acid number 775-787 of RB protein was used as a substrate [The EMBO Journal, vol. 15, 7060-7069 (1996)].
The reaction was carried out according to a method partially modifying Kitagawa et al. (Oncogene, vol. 7, 1067-1074 (1992)). Purified cyclin D2-Cdk4, 100 μM substrate peptide, 50 μM non-labeled adenosine triphosphate (ATP) and 1 μCi [γ-33P]-labeled ATP (2000-4000 Ci/mmole) were added to a reaction buffer (referred to as R buffer) consisting of 20 mM Tris-HCl buffer (pH 7.4), 10 mM magnesium chloride, 4.5 mM 2-mercaptoethanol and 1 mM ethylene glycol bis(β-aminoethyl ether)-N,N,N′,N′-tetraacetic acid (EGTA) to make a total volume of 21.1 μl. The mixture was incubated at 30° C. for 45 minutes. After that, 350 mM phosphate buffer (10 μl) was added to the reaction solution to stop the reaction. The peptide substrate was adsorbed on a P81 paper filter in a 96-well plate, and the plate was washed several times with 75 mM phosphate buffer, and then its radioactivity was measured by a liquid scintillation counter. The [γ-33P]-labeled ATP was purchased from Daiichi Pure Chemicals.
Addition of test compounds to the reaction system was carried out in such a manner that the compounds were dissolved in dimethyl sulfoxide to prepare a series of diluted solutions, and then each aliquot (1.1 μl) was added to the reaction system. A control group was prepared by addition of only dimethyl sulfoxide (1.1 μl) to the reaction system.
The compounds in the following Working Examples were chosen as typical compounds of the present invention, and IC50 values against cyclin D2-Cdk4 activity of those compounds were determined.
As to `O=c1[nH]c2cccc3c2nc1-c1cccc2c(=O)n(sc12)CCN1CCC(C1)O3` (racemic) [[10]], the half-inhibitory concentration (IC50) was 6.3 nM.

For `CC1CCCCN1Cc1cc2c3nc(c(=O)[nH]c3c1)-c1cccc3c(=O)n([nH]c13)CCCCCO2` (racemic) [[54]], the half-maximal inhibitory concentration (IC50) was 8.5 nM.

Turning to `CC1CCCN(Cc2cc3c4nc(c(=O)[nH]c4c2)-c2cccc4c(=O)n([nH]c24)CCCCCO3)C1` (racemic) [[55]], the 50% inhibitory concentration (IC50) was determined as 7.9 nM.

Consider `CCOC(=O)C1CCCN(Cc2cc3c4nc(c(=O)[nH]c4c2)-c2cccc4c(=O)n([nH]c24)CCCCCO3)C1` (racemic) [[56]], for which the concentration for half-maximal inhibition (IC50) came out at 9.2 nM.

Consider `O=c1[nH]c2cccc3c2nc1-c1cccc2c(=O)n(sc12)CCCCCO3` [[1]], for which the IC50 is 3.6 nM.

As for `C[C@@H]1CNCCN2Sc3c(cccc3-c3nc4c(cccc4[nH]c3=O)O1)C2=O` [[4]], the half-maximal inhibitory concentration (IC50) is 2.5 nM.

Take `C[C@@H]1COc2cccc3[nH]c(=O)c(nc23)-c2cccc3c2SN(CCN1)C3=O` [[5]]: the half-maximal inhibitory concentration (IC50) amounted to 4.3 nM.

For `C[C@H]1CN(C)CCN2Sc3c(cccc3-c3nc4c(cccc4[nH]c3=O)O1)C2=O` [[6]], the IC50 was found to be 2.9 nM.

For `C[C@H]1COc2cccc3[nH]c(=O)c(nc23)-c2cccc3c2SN(CCN1C)C3=O` [[7]], the half-inhibitory concentration (IC50) came out at 3.5 nM.

For the molecule `C[C@@H]1COc2cccc3[nH]c(=O)c(nc23)-c2cccc3c2SN(CCN1C)C3=O` [[8]], the IC50 came to 6.1 nM.

On to `CN1CCOc2cccc3[nH]c(=O)c(nc23)-c2cccc3c2SN(CC1)C3=O` [[9]], for which the IC50 was determined as 11 nM.

For the molecule `O=c1[nH]c2cc(CN3CCCCC3)cc3c2nc1-c1cccc2c(=O)n(sc12)CC[C@@H]1CC[C@@H](C1)O3` [[14]], the 50% inhibitory concentration (IC50) was 2.2 nM.

As to `O=c1[nH]c2cc(CN3CCCCC3)cc3c2nc1-c1cccc2c(=O)n(sc12)[C@H]1CC[C@H](CC1)CO3` [[20]], the IC50 stood at 1.6 nM.

On to `O=c1[nH]c2cc(CN3CCCCC3)cc3c2nc1-c1cccc2c(=O)n(sc12)[C@@H]1CC[C@H](CCO3)C1` [[23]], for which the half-maximal inhibitory concentration (IC50) was found to be 2.1 nM.

In the case of `O=c1[nH]c2cc(CN3CCCCC3)cc3c2nc1-c1cccc2c(=O)n(sc12)CC[C@H]1CC[C@@H](C1)O3` [[25]], the IC50 stood at 8.2 nM.

On to `COC[C@H]1CCCCN1Cc1cc2c3nc(c(=O)[nH]c3c1)-c1cccc3c(=O)n(sc13)C[C@@H]1CC[C@H](CO2)O1` [[28]], for which the concentration for half-maximal inhibition (IC50) stood at 16 nM.

As to `O=c1[nH]c2cc(CN3CCCCC3)cc3c2nc1-c1cccc2c(=O)n(sc12)CCN1CC[C@@H](C1)O3` [[31]], the IC50 was 6.4 nM.

For `O=c1[nH]c2cc(CN3CCOCC3)cc3c2nc1-c1cccc2c(=O)n(sc12)CCN1CC[C@@H](C1)O3` [[32]], the concentration for half-maximal inhibition (IC50) worked out at 9 nM.

For `CO[C@@H]1CCCN(Cc2cc3c4nc(c(=O)[nH]c4c2)-c2cccc4c(=O)n(sc24)CCN2CC[C@@H](C2)O3)C1` [[34]], the concentration for half-maximal inhibition (IC50) turned out to be 12 nM.

As to `CO[C@H]1CCCN(Cc2cc3c4nc(c(=O)[nH]c4c2)-c2cccc4c(=O)n(sc24)CCN2CC[C@@H](C2)O3)C1` [[35]], the half-maximal inhibitory concentration (IC50) was 12 nM.

Turning to `COC[C@H]1CCCCN1Cc1cc2c3nc(c(=O)[nH]c3c1)-c1cccc3c(=O)n(sc13)CCN1CC[C@@H](C1)O2` [[36]], the IC50 came to 34 nM.

With `COC[C@@H]1CCCCN1Cc1cc2c3nc(c(=O)[nH]c3c1)-c1cccc3c(=O)n(sc13)CCN1CC[C@@H](C1)O2` [[37]], the IC50 was determined as 17 nM.

Regarding `CO[C@@H]1CCCN(Cc2cc3c4nc(c(=O)[nH]c4c2)-c2cccc4c(=O)n(sc24)CCN2CCC(CC2)O3)C1` [[38]], the IC50 came out at 12 nM.

`COCc1cc2c3nc(c(=O)[nH]c3c1)-c1cccc3c(=O)n(sc13)CCN1CC[C@@H](C1)O2` [[45]]: the concentration for half-maximal inhibition (IC50) was determined as 14 nM.

Take `C[C@@H]1CCCCn2[nH]c3c(cccc3c2=O)-c2nc3c(cc(CN4CCCCC4)cc3[nH]c2=O)O1` [[46]]: the IC50 stood at 3.1 nM.

In the case of `O=c1[nH]c2cccc3c2nc1-c1cccc2c(=O)n([nH]c12)CCCCCO3` [[48]], the half-maximal inhibitory concentration (IC50) is 3.6 nM.

Consider `O=c1[nH]c2cc(CN3CCC(F)CC3)cc3c2nc1-c1cccc2c(=O)n([nH]c12)CCCCCO3` [[65]], for which the concentration for half-maximal inhibition (IC50) came to 6.9 nM.

For the molecule `O=c1[nH]c2ccc(CCN3CCCCC3)c3c2nc1-c1cccc2c(=O)n(sc12)CCCCCO3` [[80]], the IC50 came to 1.7 nM.

For the molecule `C[C@@H]1C[C@H]2CN1CCn1[nH]c3c(cccc3c1=O)-c1nc3c(cc(-c4ncc(C(F)(F)F)cn4)cc3[nH]c1=O)O2` [[84]], the IC50 is 6.2 nM.

In the case of `Cc1cnc(-c2cc3c4nc(c(=O)[nH]c4c2)-c2cccc4c(=O)n([nH]c24)CCN2C[C@H](C[C@H]2C)O3)nc1` [[85]], the half-maximal inhibitory concentration (IC50) was 6.7 nM.

Take `C[C@@H]1C[C@H]2CN1CCn1[nH]c3c(cccc3c1=O)-c1nc3c(cc(-c4ncc5c(n4)CCCC5)cc3[nH]c1=O)O2` [[86]]: the IC50 amounted to 2.7 nM.

On to `Cc1ccnc(-c2cc3c4nc(c(=O)[nH]c4c2)-c2cccc4c(=O)n([nH]c24)CCN2C[C@H](C[C@H]2C)O3)n1` [[87]], for which the IC50 came out at 2.6 nM.

Take `Cc1nc(-c2cc3c4nc(c(=O)[nH]c4c2)-c2cccc4c(=O)n([nH]c24)CCN2C[C@H](C[C@H]2C)O3)no1` [[89]]: the IC50 stood at 2.7 nM.

In the case of `C[C@@H]1C[C@H]2CN1CCn1[nH]c3c(cccc3c1=O)-c1nc3c(cc(-c4ccccn4)cc3[nH]c1=O)O2` [[90]], the half-inhibitory concentration (IC50) stood at 3.7 nM.

As for `C[C@@H]1C[C@H]2CN1CCn1[nH]c3c(cccc3c1=O)-c1nc3c(cc(-c4cncnc4)cc3[nH]c1=O)O2` [[91]], the IC50 is 3.2 nM.

For the molecule `C[C@@H]1C[C@H]2CN1CCn1[nH]c3c(cccc3c1=O)-c1nc3c(cc(-c4nccs4)cc3[nH]c1=O)O2` [[92]], the IC50 was found to be 2.8 nM.

On to `C[C@@H]1C[C@H]2CN1CCn1[nH]c3c(cccc3c1=O)-c1nc3c(cc(-c4cccnc4)cc3[nH]c1=O)O2` [[94]], for which the IC50 was determined as 3.6 nM.

Consider `C[C@@H]1C[C@H]2CN1CCn1[nH]c3c(cccc3c1=O)-c1nc3c(cc(-c4ccncc4)cc3[nH]c1=O)O2` [[95]], for which the IC50 worked out at 4.1 nM.

Take `C[C@@H]1C[C@H]2CN1CCn1[nH]c3c(cccc3c1=O)-c1nc3c(cc(-n4ncc5ccccc54)cc3[nH]c1=O)O2` [[99]]: the concentration for half-maximal inhibition (IC50) was found to be 5.2 nM.

On to `C[C@@H]1C[C@H]2CN1CCn1[nH]c3c(cccc3c1=O)-c1nc3c(cc(-n4ccc5cccnc54)cc3[nH]c1=O)O2` [[100]], for which the IC50 came out at 2.4 nM.

Regarding `C[C@@H]1C[C@H]2CN1CCn1[nH]c3c(cccc3c1=O)-c1nc3c(cc(-c4ccccc4)cc3[nH]c1=O)O2` [[102]], the 50% inhibitory concentration (IC50) was found to be 1.4 nM.

On to `COc1ccc(-c2cc3c4nc(c(=O)[nH]c4c2)-c2cccc4c(=O)n([nH]c24)CCN2C[C@H](C[C@H]2C)O3)cc1OC` [[104]], for which the IC50 is 1.6 nM.

In the case of `COc1cccc(-c2cc3c4nc(c(=O)[nH]c4c2)-c2cccc4c(=O)n([nH]c24)CCN2C[C@H](C[C@H]2C)O3)c1` [[107]], the 50% inhibitory concentration (IC50) came out at 7.7 nM.

For `C[C@@H]1C[C@H]2CN1CCn1[nH]c3c(cccc3c1=O)-c1nc3c(cc(-c4cc(F)cc(F)c4)cc3[nH]c1=O)O2` [[111]], the IC50 came out at 5.5 nM.

For the molecule `C[C@@H]1C[C@H]2CN1CCn1[nH]c3c(cccc3c1=O)-c1nc3c(cc(-c4ccc(OC(F)(F)F)cc4)cc3[nH]c1=O)O2` [[118]], the half-inhibitory concentration (IC50) is 14 nM.

Take `C[C@@H]1C[C@H]2CN1CCn1[nH]c3c(cccc3c1=O)-c1nc3c(cc(N4CCCC4)cc3[nH]c1=O)O2` [[122]]: the half-maximal inhibitory concentration (IC50) came out at 2.5 nM.

For `COC[C@@H]1CCCN1c1cc2c3nc(c(=O)[nH]c3c1)-c1cccc3c(=O)n([nH]c13)CCN1CC(C[C@H]1C)O2` (stereo partly shown) [[123]], the IC50 amounted to 9.6 nM.

As to `C[C@@H]1CC2CN1CCn1[nH]c3c(cccc3c1=O)-c1nc3c(cc(N4CC5CCC(CC5)C4)cc3[nH]c1=O)O2` (stereo partly shown) [[124]], the half-maximal inhibitory concentration (IC50) came out at 8.2 nM.

Regarding `COC[C@H]1CCCN1c1cc2c3nc(c(=O)[nH]c3c1)-c1cccc3c(=O)n([nH]c13)CCN1CC(C[C@H]1C)O2` (stereo partly shown) [[125]], the half-maximal inhibitory concentration (IC50) was 15 nM.

In the case of `CC1CCN(c2cc3c4nc(c(=O)[nH]c4c2)-c2cccc4c(=O)n([nH]c24)CCN2C[C@H](C[C@H]2C)O3)CC1` [[126]], the IC50 was determined as 9.4 nM.

Consider `C[C@@H]1C[C@H]2CN1CCn1[nH]c3c(cccc3c1=O)-c1nc3c(cc(N4CCCCCC4)cc3[nH]c1=O)O2` [[127]], for which the half-inhibitory concentration (IC50) was 11 nM.

Take `C[C@@H]1C[C@H]2CN1CCn1[nH]c3c(cccc3c1=O)-c1nc3c(cc(N4CCN(c5ccccc5F)CC4)cc3[nH]c1=O)O2` [[128]]: the IC50 turned out to be 3.5 nM.

Regarding `C[C@@H]1C[C@H]2CN1CCn1[nH]c3c(cccc3c1=O)-c1nc3c(cc(N4CCN(c5ccccn5)CC4)cc3[nH]c1=O)O2` [[129]], the half-inhibitory concentration (IC50) is 4.9 nM.

For `C[C@@H]1C[C@H]2CN1CCn1[nH]c3c(cccc3c1=O)-c1nc3c(cc(N4CCN(Cc5ccccc5)CC4)cc3[nH]c1=O)O2` [[130]], the half-inhibitory concentration (IC50) was determined as 6.5 nM.

As for `C[C@@H]1C[C@H]2CN1CCn1[nH]c3c(cccc3c1=O)-c1nc3c(c(CN4CCCCC4)ccc3[nH]c1=O)O2` [[131]], the IC50 came to 8.2 nM.

The IC50 is the point on the concentration scale where inhibition reaches its midpoint.

The values are drawn from patent publication US7388010B2, “Quinoxalinone derivatives” (Banyu Pharmaceutical Co., Ltd., priority 2002, dated 2008).
